These results are taken from ChEMBL document CHEMBL1154247, “Biscarpamontamines A and B, an aspidosperma-iboga bisindole alkaloid and an aspidosperma-aspidosperma bisindole alkaloid, from Tabernaemontana sphaerocarpa” (J Nat Prod, 2009).

Common to all, as to assay type: functional, cell-based
One assay relates to HL-60. In words: Cytotoxicity against human HL60 cells after 48 hrs by MTT assay. The following applies: HL-60, 48 h.
The test system of another assay is RPMI-8226. Kind of assay: Cytotoxicity against human RPMI8226 cells after 48 hrs by MTT assay. The note with it: RPMI-8226, 48 h.
The test system of the next assay is NCI-H226. In words: Cytotoxicity against human NCI-H226 cells after 48 hrs by MTT assay. The note with it: NCI-H226, 48 h.
For the next assay, the system named is HCT-116. Kind of assay: Cytotoxicity against human HCT116 cells after 48 hrs by MTT assay. The following applies: HCT-116, 48 h.
In another assay the test system is MCF7. In words: Cytotoxicity against human MCF7 cells after 48 hrs by MTT assay. The following applies: MCF7, 48 h.

In the case of `CC[C@]1(O)C[C@H]2CN(CCc3c([nH]c4ccccc34)[C@@](C(=O)OC)(c3cc4c(cc3OC)N(C=O)[C@H]3[C@@](O)(C(=O)OC)[C@H](OC(C)=O)[C@]5(CC)C=CCN6CC[C@]43[C@@H]65)C2)C1` [VINCRISTINE], the half-inhibitory concentration (IC50) in the assay with HL-60 was 0.00087 µM.

For `CC[C@H]1C[C@H]2C[C@@]3(C(=O)OC)c4c(c5cc(OC)ccc5n4CC4=C[C@@]5(CCO)CC(C(=O)OC)=C6Nc7ccccc7[C@@]67CCN(C4)[C@@H]57)CCN([C@@H]2O)[C@@H]13` [BISCARPAMONTAMINE A], the IC50 in the assay with HL-60 is 12.2 µM; in the assay on RPMI-8226 it was 27.9 µM; with NCI-H226, 16.9 µM; with HCT-116, 14 µM; in the assay with MCF7, 25.3 µM.

On to `CC[C@]1(O)C[C@@H]2CN(CCc3c([nH]c4ccccc34)[C@@](C(=O)OC)(c3cc4c(cc3OC)N(C)[C@H]3[C@@](O)(C(=O)OC)[C@H](OC(C)=O)[C@]5(CC)C=CCN6CC[C@]43[C@@H]65)C2)C1` [VINBLASTINE], for which the IC50 in the assay with HL-60 worked out at 0.0016 µM.
